Results on 19 molecules are retold here after ChEMBL document CHEMBL4304773, “Nitroimidazole-containing compounds and their antibacterial and antitubercular activities” (2019).

For orientation: MIC90 means an inhibitory concentration at the 90% level, which refers to growth in some studies and to a panel of isolates in others. A low value points to higher susceptibility. One may read the MIC as the smallest concentration in the dilution series that meets the test's criterion for growth inhibition. Higher therefore signals weaker potency. For orientation: ED50 means the midpoint of the dose-response relation. A higher ED50 goes with weaker potency.

Values after ≈ are worked out from the molar mass of the structure shown.

For assay [1], the system named is Helicobacter pylori. Nature of the assay: Antibacterial activity against Helicobacter pylori. It is filed as functional.
Assay [2] relates to Helicobacter pylori. Nature of the assay: Antibacterial activity against Helicobacter pylori NCTC 11637. Type of assay: functional.
Assay [3] concerns Pseudomonas aeruginosa. Nature of the assay: Antibacterial activity against Pseudomonas aeruginosa ATCC 27853 after 24 hrs by NCCLS method. Type of assay: functional. Conditions: ATCC 27853, 24 h.
The subject of assay [4] is Bacillus subtilis. Nature of the assay: Antibacterial activity against Bacillus subtilis ATCC 530 after 24 hrs by NCCLS method. It is filed as functional. Conditions: ATCC 530, 24 h.
Assay [5] concerns Escherichia coli. Nature of the assay: Antibacterial activity against Escherichia coli ATCC 25922 after 24 hrs by NCCLS method. It is filed as functional. Conditions: ATCC 25922, 24 h.
The subject of assay [6] is Staphylococcus aureus. Nature of the assay: Antibacterial activity against Staphylococcus aureus ATCC 25923 after 24 hrs by NCCLS method. Conditions: ATCC 25923, 24 h. It is filed as functional.
A further assay relates to Streptococcus pyogenes. Nature of the assay: Antibacterial activity against Streptococcus pyogenes. It is filed as functional.
Assay [7] has as its system Staphylococcus aureus. Nature of the assay: Antibacterial activity against Staphylococcus aureus. It is filed as functional.
For a further assay, the system named is Enterococcus faecalis. Nature of the assay: Antibacterial activity against Enterococcus faecalis. Type of assay: functional.
For a further assay, the system named is Candida albicans. Nature of the assay: Antifungal activity against Candida albicans. Type of assay: functional.
The subject of assay [8] is Staphylococcus epidermidis. Nature of the assay: Antibacterial activity against Staphylococcus epidermidis. Type of assay: functional.
Assay [9] has as its system Escherichia coli. Nature of the assay: Antibacterial activity against Escherichia coli. Type of assay: functional.
In assay [10] the test system is Klebsiella aerogenes. Nature of the assay: Antibacterial activity against Klebsiella aerogenes. It is filed as functional.
Assay [11] deals with Pseudomonas aeruginosa. Nature of the assay: Antibacterial activity against Pseudomonas aeruginosa. Type of assay: functional.
The next assay relates to Salmonella typhimurium. Nature of the assay: Antibacterial activity against Salmonella typhimurium. It is filed as functional, Salmonella enterica subsp. enterica serovar Typhimurium. Conditions: Salmonella enterica.
In a further assay the test system is Proteus vulgaris. Nature of the assay: Antibacterial activity against Proteus vulgaris. Type of assay: functional.
Assay [12] concerns Escherichia coli. Nature of the assay: Antibacterial activity against Escherichia coli infected in mouse. It is filed as functional.
Assay [13] has as its system Helicobacter pylori. Nature of the assay: Antibacterial activity against metronidazole-resistant Helicobacter pylori clinical isolates. Type of assay: functional.
For assay [14], the system named is Escherichia coli. Nature of the assay: Antibacterial activity against Escherichia coli ATCC 8739 after 18 hrs by two fold serial dilution. It is filed as functional. Conditions: ATCC 8739, 18 h.
The test system of assay [15] is Staphylococcus aureus. Nature of the assay: Antibacterial activity against Staphylococcus aureus ATCC 6538 after 18 hrs by two fold serial dilution. It is filed as functional. Conditions: ATCC 6538, 18 h.
For assay [16], the system named is Bacillus subtilis. Nature of the assay: Antibacterial activity against Bacillus subtilis PTCC 1023 after 18 hrs by two fold serial dilution. It is filed as functional. Conditions: PTCC 1023, 18 h.
The next assay has as its system Klebsiella pneumoniae. Nature of the assay: Antibacterial activity against Klebsiella pneumoniae ATCC 10031 after 18 hrs by two fold serial dilution. Conditions: ATCC 10031, 18 h. It is filed as functional.
In assay [17] the test system is Klebsiella aerogenes. Nature of the assay: Antibacterial activity against Enterobacter aerogenes PTCC 1221 after 18 hrs by two fold serial dilution. It is filed as functional. Conditions: PTCC 1221, 18 h.

Take `Cc1ncc([N+](=O)[O-])n1CCNCc1nonc1C(N)=O`: the MIC90 in the assay with Helicobacter pylori [1] and against Helicobacter pylori [2] was 0.5 to 32 µg/mL (≈ 1.69 to 108 µM) in each case.

Take `Cc1nn(-c2ccccc2)c(Oc2ccccc2)c1/C=N/NC(=O)Cn1c([N+](=O)[O-])cnc1C`: the MIC in the assay with Pseudomonas aeruginosa [3], against Bacillus subtilis [4], with Escherichia coli [5] and in the assay with Staphylococcus aureus [6] was 3.12 to 50 µg/mL (≈ 6.79 to 109 µM) in each case.

Regarding `Cc1nc([N+](=O)[O-])cn1Cc1nn(CNc2ccc(Cl)cc2)c(=S)o1`, the MIC with Streptococcus pyogenes was in the range of 184 to 2890 µM (≈ 70.1 to 1100 µg/mL); in the assay with Staphylococcus aureus [7] it was 184 to 2890 µM.

For `O=C(N[C@H](CO)[C@H](O)c1ccc([N+](=O)[O-])cc1)C(Cl)Cl` [CHLORAMPHENICOL], the minimal inhibitory concentration (MIC) is 7.8 to 250 µg/mL (≈ 24.1 to 774 µM) in the assay with Enterococcus faecalis; 7.8 to 250 µg/mL (≈ 24.1 to 774 µM) in the assay with Candida albicans; 7.8 to 250 µg/mL (≈ 24.1 to 774 µM) in [8]; 7.8 to 250 µg/mL with Staphylococcus aureus [7]; 7.8 to 250 µg/mL (≈ 24.1 to 774 µM) in the assay on Escherichia coli [9]; 7.8 to 250 µg/mL (≈ 24.1 to 774 µM) against Klebsiella aerogenes [10]. The minimal inhibitory concentration (MIC) against Pseudomonas aeruginosa [11], with Salmonella typhimurium and in the assay on Proteus vulgaris was 7.8 to 250 µg/mL (≈ 24.1 to 774 µM) in each case.

For `Cc1ncc([N+](=O)[O-])n1CCNCc1no[n+]([O-])c1C(N)=O`, the MIC90 in the assay on Helicobacter pylori [1] and against Helicobacter pylori [2] was 0.5 to 32 µg/mL (≈ 1.61 to 103 µM) in each case.

In the assay on Streptococcus pyogenes, `O=C(O)c1cn(C2CC2)c2cc(N3CCNCC3)c(F)cc2c1=O` [CIPROFLOXACIN] had an MIC of 189 µM (≈ 62.6 µg/mL). Besides, the 50% effective dose (ED50) with Escherichia coli [12] is 4.53 mg/kg.

As for `Cc1ncc([N+](=O)[O-])n1CCN1C(=O)S/C(=C\c2ccco2)C1=O`, the MIC with Enterococcus faecalis fell in the range of 31.2 to 500 µg/mL (≈ 89.7 to 1440 µM); in the assay with Candida albicans it was 31.2 to 500 µg/mL (≈ 89.7 to 1440 µM); in assay [8], 31.2 to 500 µg/mL (≈ 89.7 to 1440 µM); against Staphylococcus aureus [7] it was 31.2 to 500 µg/mL; against Escherichia coli [9] it was 31.2 to 500 µg/mL (≈ 89.7 to 1440 µM); with Klebsiella aerogenes [10], 31.2 to 500 µg/mL (≈ 89.7 to 1440 µM). The minimum inhibitory concentration (MIC) in the assay with Pseudomonas aeruginosa [11], against Salmonella typhimurium and in the assay with Proteus vulgaris was 31.2 to 500 µg/mL (≈ 89.7 to 1440 µM) in each case.

Regarding `COc1ccc(Oc2c(/C=N/NC(=O)Cn3c([N+](=O)[O-])cnc3C)c(C)nn2-c2ccc(C)cc2)cc1`, the minimum inhibitory concentration (MIC) in the assay on Pseudomonas aeruginosa [3], against Bacillus subtilis [4], in the assay with Escherichia coli [5] and against Staphylococcus aureus [6] was 3.12 to 50 µg/mL (≈ 6.2 to 99.3 µM) in each case.

As to `Cc1nc([N+](=O)[O-])cn1Cc1nn(CNc2ccc(F)cc2)c(=S)o1`, the minimum inhibitory concentration (MIC) in the assay with Streptococcus pyogenes was 184 to 2890 µM (≈ 67 to 1050 µg/mL); against Staphylococcus aureus [7], 184 to 2890 µM.

Take `Cc1ncc([N+](=O)[O-])n1CCOc1no[n+]([O-])c1S(=O)(=O)c1ccccc1`: the MIC90 against Helicobacter pylori [1] was 1 to 4 µg/mL (≈ 2.53 to 10.1 µM); in the assay with Helicobacter pylori [13] it was 0.5 to 32 µg/mL (≈ 1.26 to 80.9 µM); with Helicobacter pylori [2], 0.5 to 32 µg/mL (≈ 1.26 to 80.9 µM).

Consider `CCc1ccc(NCn2nc(Cn3cc([N+](=O)[O-])nc3C)oc2=S)cc1`, for which the MIC against Streptococcus pyogenes fell in the range of 184 to 2890 µM (≈ 68.9 to 1080 µg/mL); with Staphylococcus aureus [7] it was 184 to 2890 µM.

In the case of `Cc1ncc([N+](=O)[O-])n1CCNCc1no[n+]([O-])c1C`, the MIC90 in the assay on Helicobacter pylori [1] and with Helicobacter pylori [2] was 0.5 to 32 µg/mL (≈ 1.77 to 113 µM) throughout.

Take `CC(=O)Nc1nnc(Sc2c([N+](=O)[O-])ncn2C)s1`: the MIC is greater than 64 µg/mL in the assay on Escherichia coli [14]; 4 to 32 µg/mL (≈ 13.3 to 107 µM) with Staphylococcus aureus [15]; greater than 64 µg/mL with Bacillus subtilis [16]; greater than 64 µg/mL against Klebsiella pneumoniae; greater than 64 µg/mL with Klebsiella aerogenes [17].

With `Cc1ccc(Oc2c(/C=N/NC(=O)Cn3c([N+](=O)[O-])cnc3C)c(C)nn2-c2ccc(C)cc2)cc1`, the MIC in the assay with Pseudomonas aeruginosa [3], against Bacillus subtilis [4], against Escherichia coli [5] and with Staphylococcus aureus [6] was 3.12 to 50 µg/mL (≈ 6.4 to 103 µM) in each case.

Consider `Cc1nn(-c2ccccc2)c(Oc2ccc(F)cc2)c1/C=N/NC(=O)Cn1c([N+](=O)[O-])cnc1C`, for which the minimal inhibitory concentration (MIC) against Pseudomonas aeruginosa [3], in the assay with Bacillus subtilis [4], in the assay on Escherichia coli [5] and with Staphylococcus aureus [6] was 3.12 to 50 µg/mL (≈ 6.53 to 105 µM) in each case.

For the molecule `Cc1nn(-c2ccccc2)c(Oc2ccc(Cl)cc2)c1/C=N/NC(=O)Cn1c([N+](=O)[O-])cnc1C`, the minimum inhibitory concentration (MIC) against Pseudomonas aeruginosa [3], in the assay on Bacillus subtilis [4], against Escherichia coli [5] and against Staphylococcus aureus [6] was 3.12 to 50 µg/mL (≈ 6.32 to 101 µM) throughout.

Regarding `Cc1ncc([N+](=O)[O-])n1CCNCc1nonc1C#N`, the MIC90 in the assay on Helicobacter pylori [1] and with Helicobacter pylori [2] was 0.5 to 32 µg/mL (≈ 1.8 to 115 µM) in each case.

Regarding `Cc1ncc([N+](=O)[O-])n1CCN1C(=O)S/C(=C\c2ccc(Cl)cc2)C1=O`, the MIC with Enterococcus faecalis was in the range of 31.2 to 500 µg/mL (≈ 79.6 to 1270 µM); against Candida albicans, 31.2 to 500 µg/mL (≈ 79.6 to 1270 µM); in [8], 31.2 to 500 µg/mL (≈ 79.6 to 1270 µM); against Staphylococcus aureus [7], 31.2 to 500 µg/mL; in the assay on Escherichia coli [9], 31.2 to 500 µg/mL (≈ 79.6 to 1270 µM); with Klebsiella aerogenes [10] it was 31.2 to 500 µg/mL (≈ 79.6 to 1270 µM). Moreover, the MIC in the assay on Pseudomonas aeruginosa [11], against Salmonella typhimurium and in the assay with Proteus vulgaris was 31.2 to 500 µg/mL (≈ 79.6 to 1270 µM) throughout.

With `Cc1ccc(-n2nc(C)c(/C=N/NC(=O)Cn3c([N+](=O)[O-])cnc3C)c2Oc2ccc(Cl)cc2)cc1`, the minimum inhibitory concentration (MIC) in the assay with Pseudomonas aeruginosa [3], in the assay on Bacillus subtilis [4], with Escherichia coli [5] and in the assay with Staphylococcus aureus [6] was 3.12 to 50 µg/mL (≈ 6.14 to 98.4 µM) in each case.
